Test results taken from PMC6792352, “Limited Chemical Structural Diversity Found to Modulate Thyroid Hormone Receptor in the Tox21 Chemical Library” (Environmental Health Perspectives, 2019).
Counter-ions that a name gives are not always drawn.

Assay: in vitro
Conditions: rat, gh3-tre-luc cells, AC50 (uM) modified / 1000

| Compound | CC50 at 24 h |
| --- | --- |
| CC(N)Cc1ccc(O)cc1 (stereo not drawn) [Hydroxyamphetamine hydrobromide] | > 50 µM |
| O=C(Cl)c1ccc([N+](=O)[O-])cc1 [4-Nitrobenzoyl chloride] | > 90 µM |
| O=c1cc(-c2ccccc2)oc2ccc3ccccc3c12 [5,6-Benzoflavone] | > 90 µM |
| Cc1ccc(C(C)NC(=O)[C@@H](NC(=O)OC(C)C)C(C)C)cc1 (stereo partly drawn) [Iprovalicarb] | > 90 µM |
| CC(C)(C#N)N=NC(C)(C)C#N [Azobisisobutyronitrile] | > 90 µM |
| C[C@@]1(c2ccc(Oc3ccccc3)cc2)OC(=O)N(Nc2ccccc2)C1=O (racemic) [Famoxadone] | 39 µM |
| COc1cnc(NS(=O)(=O)c2ccc(N)cc2)nc1 [Sulfameter] | > 20 µM |
| CO[C@@]1(NC(=O)CSCC#N)C(=O)N2C(C(=O)O)=C(CSc3nnnn3C)CS[C@@H]21 [Cefmetazole sodium] | > 50 µM |
| CC1CCC(C(C)CS)CC1S (stereo not drawn) [Dipentenedimercaptan] | > 90 µM |
| CC(=O)C(C)O (stereo not drawn) [Acetoin] | > 90 µM |
| CCC(Cl)[N+](=O)[O-] (stereo not drawn) [1-Chloro-1-nitropropane] | > 100 µM |
| CC1(C)S[C@@H]2[C@H](NC(=O)COc3ccccc3)C(=O)N2[C@H]1C(=O)O [Penicillin VK] | > 90 µM |
| CNN [Methylhydrazine sulfate] | > 90 µM |
| CN(C)Cc1cc(C(C)(C)C)c(O)c(C(C)(C)C)c1 [2,6-Di-tert-butyl-4-[(dimethylamino)methyl]phenol] | 50.7 µM |
| Nc1ccn([C@@H]2CO[C@H](CO)O2)c(=O)n1 [Troxacitabine] | > 50 µM |
| ClC/C=C/CCl [(2E)-1,4-Dichlorobut-2-ene] | > 90 µM |
| CCCCCCCCCCCCNC(=N)N [Dodine] | > 4 µM |
| C=CCNC1=C2C[C@@H](C)C[C@H](OC)[C@H](O)[C@@H](C)/C=C(\C)[C@H](OC(N)=O)[C@@H](OC)/C=C\C=C(/C)C(=O)NC(=CC1=O)C2=O [Tanespimycin] | > 50 µM |
| N#Cc1ccccc1 [Benzonitrile] | > 90 µM |
| C=C(C)C(=O)OC1C[C@H]2CC[C@]1(C)C2(C)C (stereo partly drawn) [Isobornyl methacrylate] | > 90 µM |
| O=C1OC(c2ccc(O)c(S(=O)(=O)O)c2)(c2ccc(O)c(S(=O)(=O)O)c2)c2c(Br)c(Br)c(Br)c(Br)c21 [Sulfobromophthalein] | > 50 µM |

| Compound | CC50 at 24 h |
| --- | --- |
| CCCCNc1ccc(C(=O)OCCN(CC)CC)cc1 [Depolipon] | > 50 µM |
| NC(CO)C(=O)NNCc1ccc(O)c(O)c1O (stereo not drawn) [Benserazide hydrochloride] | > 50 µM |
| c1ccc2c(c1)-c1cccc3cccc-2c13 [Fluoranthene] | > 90 µM |
| COC(=O)/C=C(\C)CCC=C(C)C [Methyl geranate] | > 90 µM |
| C=C1/C(=C\C=C2/CCC[C@]3(C)[C@@H]([C@H](C)OCCC(C)(C)O)CC[C@@H]23)C[C@@H](O)C[C@@H]1O [Maxacalcitol] | > 50 µM |
| CC(=O)NO [Acetohydroxamic acid] | > 50 µM |
| OCc1ccccc1 [Benzyl alcohol] | > 90 µM |
| CCCCCCC(O)CCCCCCCCCCC(=O)OC (stereo not drawn) [Methyl 12-hydroxyoctadecanoate] | > 90 µM |
| COc1cc(C[C@@H](C)N)c(OC)cc1Br [R-(-)-2,5-Dimethoxy-4-bromoamphetamine hydrochloride] | 56.1 µM |
| CC(C)(C)c1ccc(C=O)cc1 [4-tert-Butylbenzaldehyde] | > 90 µM |
| CCCCCCCCCCCCC [Tridecane] | > 90 µM |
| C1OCOCO1 [1,3,5-Trioxane] | > 90 µM |
| FC(F)(F)C(Cl)(Cl)Cl [1,1,1-Trichloro-2,2,2-trifluoroethane] | > 90 µM |
| COc1ccc(N)c(C)c1 [4-Methoxy-2-methylaniline] | > 90 µM |
| Cc1ncsc1CCO [Thiamine thiozole] | > 90 µM |
| CCC(C)(C)C1CCC(=O)CC1 [4-(tert-Pentyl)-cyclohexanone] | > 90 µM |
| CCO[Si](CCC#N)(OCC)OCC [3-(Triethoxysilyl)propionitrile] | > 90 µM |
| O=C1NCCN1c1ncc([N+](=O)[O-])s1 [Niridazole] | > 20 µM |
| Cc1ccc(C(=O)c2ccccc2)cc1 [4-Methylbenzophenone] | > 90 µM |
| CCC(C)(CC)c1cc(NC(=O)c2c(OC)cccc2OC)on1 [Isoxaben] | > 90 µM |
| COc1ccccc1NC(=O)CC(C)=O [N-(2-Methoxyphenyl)-3-oxobutanamide] | > 90 µM |

| Compound | CC50 at 24 h |
| --- | --- |
| Nc1cccc(C(F)(F)F)c1 [3-(Trifluoromethyl)aniline] | > 90 µM |
| CC(C)COC(=O)c1ccc(N)cc1 [Isocaine] | > 50 µM |
| Cc1ccc(/C=N/n2c(-c3ccccc3)csc2=S)cc1 [Fezatione] | > 50 µM |
| CCCN1CCCC[C@H]1C(=O)Nc1c(C)cccc1C [Ropivacaine hydrochloride] | > 50 µM |
| CCOC(=O)c1ccccc1OC [Ethyl 2-methoxybenzoate] | > 90 µM |
| CC(C)CC(O)CC(C)C [2,6-Dimethyl-4-heptanol] | > 90 µM |
| NS(=O)(=O)c1cc2c(cc1Cl)NC(C1CC3C=CC1C3)NS2(=O)=O (stereo not drawn) [Cyclothiazide] | > 50 µM |
| CC1(C)C(/C=C/C=C/C=C/C=C2\N(CCCCS(=O)(=O)O)c3ccc4ccccc4c3C2(C)C)=[N+](CCCCS(=O)(=O)[O-])c2ccc3ccccc3c21 [Indocyanine green] | 19.5 µM |
| NCC1CCCC(CN)C1 (stereo not drawn) [1,3-Cyclohexanedimethanamine] | > 90 µM |
| CCOC(=O)C(C)Oc1ccc(Oc2cnc3cc(Cl)ccc3n2)cc1 (stereo not drawn) [Quizalofop-ethyl] | > 90 µM |
| CC1(C)[C@@H](OC(=O)CCC(=O)O)CC[C@]2(C)[C@H]3C(=O)C=C4[C@@H]5C[C@@](C)(C(=O)O)CC[C@]5(C)CC[C@@]4(C)[C@]3(C)CC[C@@H]12 [Carbenoxolone sodium] | > 20 µM |
| CSc1ccc2c(c1)C(N1CCN(C)CC1)Cc1ccccc1S2 (stereo not drawn) [Metitepine] | 5.16 µM |
| ClCC=CCCl [1,4-Dichloro-2-butene] | > 90 µM |
| C=C(C)C(=O)OCCC(F)(F)C(F)(F)C(F)(F)C(F)(F)C(F)(F)C(F)(F)F [6:2 Fluorotelomer methacrylate] | > 90 µM |
| CCCCCCCCCCCCCCCCCBr [1-Bromoheptadecane] | > 20 µM |
| COc1cc(OC)nc(Sc2cccc(Cl)c2C(=O)O)n1 [Pyrithiobac-sodium] | > 90 µM |
| CO[C@H]1C[C@@H]2CC[C@@H](C)[C@@](O)(O2)C(=O)C(=O)N2CCCC[C@H]2C(=O)O[C@H]([C@H](C)C[C@@H]2CC[C@@H](OCCO)[C@H](OC)C2)CC(=O)[C@H](C)/C=C(\C)[C@@H](O)[C@@H](OC)C(=O)[C@H](C)C[C@H](C)/C=C/C=C/C=C/1C [Everolimus] | 0.00998 µM |
| CC(=O)OCc1ccco1 [Furfuryl acetate] | > 90 µM |
| CC(C)(CO)[C@@H](O)C(=O)NCCCO [Dexpanthenol] | > 50 µM |
| CC(=O)CC(C)(C)C1CCCCC1 [4-Cyclohexyl-4-methyl-pentan-2-one] | > 90 µM |

Same assay, conditions: rat, gh3-tre-luc cells, AC50 (uM) modified / 1000, Tox21_110001=Tox21_110368; viability, 1 nM T3 present, 24 h

| Compound | CC50 at 24 h |
| --- | --- |
| CCC1(CC)C(=O)C=CNC1=O [Pyrithyldione] | > 50 µM |

Same assay, conditions: rat, gh3-tre-luc cells, AC50 (uM) modified / 1000, Tox21_110001=Tox21_200153; viability, 1 nM T3 present, 24 h

| Compound | CC50 at 24 h |
| --- | --- |
| ClC(Br)Br [Chlorodibromomethane] | > 90 µM |

Same assay, conditions: rat, gh3-tre-luc cells, AC50 (uM) modified / 1000, Tox21_110001=Tox21_200573; viability, 1 nM T3 present, 24 h

| Compound | CC50 at 24 h |
| --- | --- |
| CC(C)(C#N)C(C)(C)C#N [Tetramethylsuccinonitrile] | > 90 µM |

Same assay, conditions: rat, gh3-tre-luc cells, AC50 (uM) modified / 1000, Tox21_110001=Tox21_200923; viability, 1 nM T3 present, 24 h

| Compound | CC50 at 24 h |
| --- | --- |
| O=C(O)C(Cl)(Cl)Br [Bromodichloroacetic acid] | > 90 µM |
